This note sets out measurements from ChEMBL document CHEMBL1134722, “Selective, orally active MMP inhibitors with an aryl backbone” (Bioorg Med Chem Lett, 2001).

The half-life is the time needed for the level to fall by half in the phase considered. Read a low half-life as rapid decline. The term Cmax denotes the maximum level reached in the sampled fluid or tissue.

In series [1] the target is T1, Interstitial collagenase (Homo sapiens) (UniProt P03956).
T1 sequence (whole entry): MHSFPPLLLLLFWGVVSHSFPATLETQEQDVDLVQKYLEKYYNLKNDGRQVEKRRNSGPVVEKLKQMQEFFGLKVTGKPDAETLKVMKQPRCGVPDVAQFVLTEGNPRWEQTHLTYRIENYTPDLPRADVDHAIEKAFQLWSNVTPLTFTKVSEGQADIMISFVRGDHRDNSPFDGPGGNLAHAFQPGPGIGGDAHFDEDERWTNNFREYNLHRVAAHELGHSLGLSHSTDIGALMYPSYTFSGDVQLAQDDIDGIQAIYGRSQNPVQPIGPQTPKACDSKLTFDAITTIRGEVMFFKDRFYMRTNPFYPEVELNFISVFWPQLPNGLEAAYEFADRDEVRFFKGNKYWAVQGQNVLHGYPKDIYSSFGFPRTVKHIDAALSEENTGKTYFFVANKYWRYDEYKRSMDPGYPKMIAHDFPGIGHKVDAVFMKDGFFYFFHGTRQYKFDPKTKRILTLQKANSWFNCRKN
Put plainly: Inhibitory activity against human Matrix metalloprotease-1.

Series [2] addresses 72 kDa type IV collagenase (Homo sapiens) (UniProt P08253). Put plainly: Inhibitory concentration against Matrix metalloprotease-2.
Series [3] in a line: Half life period after intravenous administration at 20 mpk in rats. Type of series: ADME, organism-based. As to conditions: rat, in vivo, 20 mg/kg.
Series [4] is described as follows: Oral bioavailability in rat. The class given is ADME, organism-based. The following applies: in vivo, read-out: BA.
A short description of series [5]: Cmax after oral administration at 20 mpk in rats. The class given is ADME, organism-based. Also noted: dose 20 mpk, route oral. As to conditions: rat, in vivo, 20 mg/kg.

Sequence of 72 kDa type IV collagenase (Homo sapiens) (P08253 110-660 limits assumed): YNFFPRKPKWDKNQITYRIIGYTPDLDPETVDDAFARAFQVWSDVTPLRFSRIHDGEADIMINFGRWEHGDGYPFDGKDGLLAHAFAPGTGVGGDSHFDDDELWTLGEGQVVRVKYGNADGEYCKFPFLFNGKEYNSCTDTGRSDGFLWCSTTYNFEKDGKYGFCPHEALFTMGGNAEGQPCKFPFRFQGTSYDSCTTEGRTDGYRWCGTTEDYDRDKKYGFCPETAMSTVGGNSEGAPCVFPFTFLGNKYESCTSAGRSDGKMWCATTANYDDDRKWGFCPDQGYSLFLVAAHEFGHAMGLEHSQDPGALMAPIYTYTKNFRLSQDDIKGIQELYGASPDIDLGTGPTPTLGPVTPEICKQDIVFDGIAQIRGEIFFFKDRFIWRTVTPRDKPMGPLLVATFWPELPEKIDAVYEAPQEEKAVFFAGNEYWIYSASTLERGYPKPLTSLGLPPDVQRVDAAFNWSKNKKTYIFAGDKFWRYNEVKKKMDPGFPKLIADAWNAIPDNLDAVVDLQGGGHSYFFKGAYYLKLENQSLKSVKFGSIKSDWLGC

`COc1ccc(OC)c(S(=O)(=O)N2CCC(Oc3ccc(C(F)(F)F)cc3)CC2)c1C(=O)NO`: the Activity in series [1] is > 10 µM; in series [2] it was 21 nM.

With `O=C(NO)c1ccccc1S(=O)(=O)N1CCC(Oc2ccc(C(F)(F)F)cc2)CC1`, the Activity in series [1] was > 10 µM. In series [3], this compound had a half-life of 0.8 h. Also, the bioavailability in series [4] turned out to be 23%. Further, the Cmax in series [5] stood at 1230 ng/mL.

As to `COc1ccc(OC2CCN(S(=O)(=O)c3ccc(OC)c(OC)c3C(=O)NO)CC2)cc1`, the Activity in series [1] is > 10 µM; in series [2], 1.8 nM.

`O=C(NO)C1(CS(=O)(=O)c2ccc(Oc3ccc(Cl)cc3)cc2)CCOCC1` [CTS-1027]: the Activity in series [1] amounted to 0.8 µM; in series [2], 0.4 nM. In series [3], this compound gave a half-life of 1.5 h. Also, in series [4], the bioavailability is 22%. Moreover, in series [5], the highest level (Cmax) was 1370 ng/mL.

Regarding `O=C(NO)c1c(Cl)cccc1S(=O)(=O)N1CCC(Oc2ccc(C(F)(F)F)cc2)CC1`, the Activity in series [1] was > 10 µM; in series [2], 1.9 nM. The compound also showed a Cmax in series [5] of 1310 ng/mL.

For the compound `COc1ccc(S(=O)(=O)N2CCC(Oc3ccc(Cl)cc3)CC2)c(C(=O)NO)c1OC`, the results for the Activity in series [1] and in series [2] were > 10 µM and 0.3 nM, respectively.

Regarding `COc1ccc(S(=O)(=O)N2CCC(OCc3ccc4c(c3)OCO4)CC2)c(C(=O)NO)c1OC`, the Activity is > 10 µM in series [1] and 1 nM in series [2]. For the same compound, the Cmax in series [5] came out at 9200 ng/mL.

Take `O=C(NO)c1c(F)cccc1S(=O)(=O)N1CCC(Oc2ccc(C(F)(F)F)cc2)CC1`: the Activity was > 10 µM in series [1] and 3.3 nM in series [2].

Take `O=C(NO)c1c(S(=O)(=O)N2CCC(OCc3ccc4c(c3)OCO4)CC2)ccc2c1OCO2`: the Activity in series [1] is > 10 µM; in series [2], 1.1 nM.

Consider `O=C(NO)c1c(OC2CCOCC2)cccc1S(=O)(=O)N1CCC(Oc2ccc(C(F)(F)F)cc2)CC1`, for which the values for the Activity in series [1] and in series [2] were > 10 µM and 1.1 nM, respectively.

For `O=C(NO)c1ccccc1S(=O)(=O)N1CCC(Oc2ccc(OC(F)(F)F)cc2)CC1`, the values for the Activity in series [1] and in series [2] were > 10 µM and 2.2 nM, respectively. In series [4], the bioavailability is 39%. In series [5], this compound displayed a Cmax of 670 ng/mL.

In the case of `COc1ccccc1OC1CCN(S(=O)(=O)c2ccc(OC)c(OC)c2C(=O)NO)CC1`, the Activity in series [1] is > 10 µM; in series [2], 330 nM.

With `CNC(=O)[C@@H](NC(=O)C(CC(C)C)C(O)C(=O)NO)C(C)(C)C` (single isomer, unassigned), the half-life in series [3] is 0.9 h. Also, the bioavailability in series [4] is 9%. The compound also gave a Cmax in series [5] of 2400 ng/mL.

Turning to `COCCOc1cccc(S(=O)(=O)N2CCC(Oc3ccc(C(F)(F)F)cc3)CC2)c1C(=O)NO`, the figures for the Activity in series [1] and in series [2] were > 10 µM and 1 nM, respectively. This compound also had a maximum concentration (Cmax) in series [5] of 2670 ng/mL.

In the case of `CC1(C)SCCN(S(=O)(=O)c2ccc(Oc3ccncc3)cc2)[C@H]1C(=O)NO` [PRINOMASTAT], the half-life in series [3] is 1.6 h. Besides, in series [4], the bioavailability was 28%. Also, the concentration in series [5] peaked (Cmax) at 2060 ng/mL.

Take `O=C(NO)c1c(S(=O)(=O)N2CCC(Oc3ccc(C(F)(F)F)cc3)CC2)ccc2c1OCCO2`: the Activity is > 10 µM in series [1] and 1.4 nM in series [2]. Also, the peak concentration (Cmax) in series [5] was 3200 ng/mL.

For `COc1ccc(S(=O)(=O)N2CCC(Oc3ccccc3)CC2)c(C(=O)NO)c1OC`, the figures for the Activity in series [1] and in series [2] were > 10 µM and 1.1 nM, respectively.

On to `COc1ccc(S(=O)(=O)N2CCC(Oc3ccc(C(F)(F)F)cc3)CC2)c(C(=O)NO)c1OC`, for which the Activity in series [1] was > 10 µM; in series [2], 2.4 nM. For the same compound, in series [3], the half-life was 1.9 h. In addition, the bioavailability in series [4] came out at 32%. In addition, the Cmax in series [5] was 22500 ng/mL.

`COc1ccc(S(=O)(=O)N2CCC(Oc3ccc(OC(F)(F)F)cc3)CC2)c(C(=O)NO)c1OC`: the Activity in series [1] is > 10 µM; in series [2] it was 0.8 nM. Also, the half-life in series [3] is 1.5 h. The bioavailability in series [4] is 31%. For the same compound, in series [5], the concentration peaked (Cmax) at 5160 ng/mL.

For the compound `O=C(NO)c1c(S(=O)(=O)N2CCC(Oc3ccc(C(F)(F)F)cc3)CC2)ccc2c1OCO2`, the Activity in series [1] was > 10 µM; in series [2] it was 3 nM. Moreover, the peak level in series [5] (Cmax) was 3060 ng/mL.

As to `COc1cccc(OC2CCN(S(=O)(=O)c3ccc(OC)c(OC)c3C(=O)NO)CC2)c1`, the Activity was > 10 µM in series [1] and 12 nM in series [2].
